Experimental findings from patent US20160320368A1, “METHOD AND APPARATUS FOR PREDICTING EFFECTIVE DOSE OR SENSITIVITY OF 5-HYDROXY-1H-IMIDAZOLE-4-CARBOXAMIDE, METHOD FOR DETERMINING AMOUNT OF XANTHOSINE MONOPHOSPHATE, AND TREATMENT AGENT AND METHOD FOR TREATING MYELODYSPLASTIC SYNDROME” (FUJIFILM Corporation, priority 2014, published 2016) are described below.

Experiment [1] deals with human myeloid leukemia cell line SKM-1. Briefly: Cell growth inhibitory activity (CellTiter-Glo, 72 hours). The format is cell-based. The conditions noted are these: SKM-1, 72 hours. How it is done: (§1) A ¾ hydrate of Compound A was used as a test compound.
SKM-1 (available from National Institute of Biomedical Innovation JCRB Cell Bank) was used as a human myeloid leukemia cell line.
90 μL (5000 cells) of the human myeloid leukemia cell line SKM-1 was seeded onto a 96-well plate. 10 μL of a PBS solution of the test compound (0 μmol/L, 1 μmol/L, 3 μmol/L, 10 μmol/L, 30 μmol/L, 100 μmol/L, 300 μmol/L, 1000 μmol/L, 3000 μmol/L, or 10000 μmol/L in terms of Compound A) was added to the plate which was then incubated in 5% CO2 at 37° C. for 72 hours. 100 μL of CellTiter-Glo (manufactured by Promega) was added to each well to prepare a cell lysate.
The relative value of chemiluminescence intensity was calculated by a plate reader.
On the technique in general: In ATP-based viability assays light output follows the ATP content of the culture.

The test system of experiment [2] is XMP in blood cells of healthy human. Briefly: XMP in blood cells of healthy human (hemolysis, Example 4). The format is cell-based. The conditions noted are these: 37° C., 8 hours, non-treated = 100%. As for the experimental part: as §1
450 μL of the blood collected from two healthy individuals by heparinized blood collection (Analyte A and Analyte B) was added to each of 1.5 mL tubes, and 50 μL of a PBS solution of the test compound (0 μg/mL, 10 μg/mL, 30 μg/mL, 100 μg/mL, 300 μg/mL, or 1000 μg/mL in terms of Compound A) for each concentration was added to each tube. The reaction mixture was stirred in an incubator at 37° C. for 8 hours. Then, BD Pharm Lyse (555899, manufactured by Becton, Dickinson and Company, Inc.) was added to the blood (2 mL of BD Pharm Lyse was added relative to 0.2 mL of blood). After stirring with a vortex mixer, the reaction solution was protected from light and allowed to stand at room temperature for 15 min. After centrifugation at 20° C. and 1000×g for 5 min, the supernatant was removed and suspended in 10 mL of a PBS solution. After centrifugation at 4° C. and 1000×g for 5 min, the supernatant was removed, and 1000 μL of methanol was added to each tube, followed by stirring. Thereafter, 500 μL of ultrapure water was added thereto, followed by further stirring. 600 μL of the reaction solution was divided into each of two tubes, and 400 μL of chloroform was added to each tube. The reaction solution was stirred and then centrifuged at 4° C. and 10000×g for 15 min. 400 μL of the aqueous phase was recovered and added to an ultrafiltration tube, followed by centrifugation at 12° C. and 9200×g for 2 hours. The filtrates were combined and then dried under reduced pressure at 40° C. for 2 hours by using a centrifugal evaporator. After drying, the resulting product was stored in a freezer at −80° C.
The samples stored in (1) and (2) were returned to room temperature and 40 μL of ultrapure water was added to each sample. The mixture was stirred and centrifuged at 4° C. and 21500×g for 5 min. 35 μL of the supernatant was transferred to a vial. After storage at 4° C., XMP in samples was determined in the LC-MS/MS determination instrument, LC conditions and MS/MS conditions described in Example 3 (3).
Amounts of XMP (%) were calculated assuming that the XMP value of a non-Compound A treated group (peak area value) is defined as 100%.

Another experiment has as its system XMP in blood cells. Briefly: XMP in blood cells of mice after oral administration. The following applies: 100 mg/kg oral, non-treated = 100%. The format is in vivo, female mice (BALB/cAJcl). How it is done:
as §1
0.5% MC or 0.5% MC of the test compound (100 mg/kg in terms of Compound A) was orally administered to female mice (BALB/cAJcl).
Whole blood was collected from the postcava of animals under anesthesia by isoflurane inhalation at 1, 4, 8 or 24 hours post-dose, using a polypropylene syringe treated with an ethylenediaminetetraacetic acid disodium salt and a 25 gauge injection needle. BD Pharm Lyse (555899, manufactured by Becton, Dickinson and Company, Inc.) was added to the blood (2 mL of BD Pharm Lyse was added relative to 0.2 mL of blood). After stirring with a vortex mixer, the reaction solution was protected from light and allowed to stand at room temperature for 15 min. After centrifugation at 20° C. and 1000×g for 5 min, the supernatant was removed and suspended in 10 mL of a PBS solution. After centrifugation at 4° C. and 1000×g for 5 min, the supernatant was removed, and 1000 μL of methanol was added to each tube, followed by stirring. Thereafter, 500 μL of ultrapure water was added thereto, followed by further stirring. 600 μL of the reaction solution was divided into each of two tubes, and 400 μL of chloroform was added to each tube. The reaction solution was stirred and then centrifuged at 4° C. and 10000×g for 15 min. 400 μL of the aqueous phase was recovered and added to an ultrafiltration tube, followed by centrifugation at 12° C. and 9200×g for 2 hours. The filtrates were combined and then dried under reduced pressure at 40° C. for 2 hours by using a centrifugal evaporator. After drying, the resulting product was stored in a freezer at −80° C.
The samples obtained in (2-1) and (2-2) were returned to room temperature, and 40 μL of ultrapure water was added to the hemolysis sample and 150 μL of ultrapure water was added to the bone marrow sample. The mixture was stirred and then centrifuged at 4° C. and 21500×g for 5 min. For the hemolysis sample, 35 μL of the supernatant was transferred to a vial. For the bone marrow sample, 140 μL of the supernatant was transferred to a vial. After storage at 4° C., XMP in samples was determined in the LC-MS/MS determination instrument, LC conditions and MS/MS conditions described in Example 3 (3).
Amounts of XMP (%) were calculated assuming that amounts of XMP in a non-Compound A treated group are defined as 100%.

One may read the IC50 as the concentration that inhibits the measured activity by half. Lower therefore signals higher potency. Turning to `NC(=O)c1nc[nH]c1O` [Compound A, 5-Hydroxy-1H-imidazole-4-carboxamide], the 50% inhibitory concentration (IC50) is 21.5 µM in experiment [1] and 2.73 µg/mL in experiment [1] (in terms of Compound A). For the same molecule, the “Amount of XMP (%) Analyte A” value in experiment [2] (Compound A 1 μg/mL) turned out to be 60%; in experiment [2] (Compound A 3 μg/mL), 45%; in experiment [2] (Compound A 10 μg/mL), 37%; in experiment [2] (Compound A 30 μg/mL) it was 27%; in experiment [2] (Compound A 100 μg/mL), 16%. Also, the “Amount of XMP (%) Analyte B” value worked out at 51% in experiment [2] (Compound A 1 μg/mL); 37% in experiment [2] (Compound A 3 μg/mL); 25% in experiment [2] (Compound A 10 μg/mL); 18% in experiment [2] (Compound A 30 μg/mL); 10% in experiment [2] (Compound A 100 μg/mL). For the same molecule, the “Amount of XMP (%) Blood cell” value in the experiment on XMP in blood cells (1 hr post-dose) turned out to be 3.4%; in the experiment on XMP in blood cells (4 hr post-dose), 7.2%; with XMP in blood cells (8 hr post-dose), 26.4%; in the experiment with XMP in blood cells (24 hr post-dose) it was 70.7%.
